From ChEMBL document CHEMBL1149313, “Synthesis of classical, three-carbon-bridged 5-substituted furo[2,3-d]pyrimidine and 6-substituted pyrrolo[2,3-d]pyrimidine analogues as antifolates” (J Med Chem, 2004) come the findings set out here.

The term IC50 denotes the concentration at which inhibition is half-maximal. As a reminder, the GI50 is the concentration giving 50% growth inhibition. Usually inhibition stands for the relative decrease from the control value, in per cent. For orientation: Km means the substrate concentration at which the rate is half of its maximum.

Data set [1] relates to CCRF-CEM. Briefly: Growth inhibition in human CCRF-CEM cells assessed as cell growth relative to control. In kind it is functional. Further details: scale not given: the % may be the effect or the level left.
Data set [2] has as its target T1, Folylpolyglutamate synthase, mitochondrial (Homo sapiens) (UniProt Q05932).
T1 sequence (whole entry): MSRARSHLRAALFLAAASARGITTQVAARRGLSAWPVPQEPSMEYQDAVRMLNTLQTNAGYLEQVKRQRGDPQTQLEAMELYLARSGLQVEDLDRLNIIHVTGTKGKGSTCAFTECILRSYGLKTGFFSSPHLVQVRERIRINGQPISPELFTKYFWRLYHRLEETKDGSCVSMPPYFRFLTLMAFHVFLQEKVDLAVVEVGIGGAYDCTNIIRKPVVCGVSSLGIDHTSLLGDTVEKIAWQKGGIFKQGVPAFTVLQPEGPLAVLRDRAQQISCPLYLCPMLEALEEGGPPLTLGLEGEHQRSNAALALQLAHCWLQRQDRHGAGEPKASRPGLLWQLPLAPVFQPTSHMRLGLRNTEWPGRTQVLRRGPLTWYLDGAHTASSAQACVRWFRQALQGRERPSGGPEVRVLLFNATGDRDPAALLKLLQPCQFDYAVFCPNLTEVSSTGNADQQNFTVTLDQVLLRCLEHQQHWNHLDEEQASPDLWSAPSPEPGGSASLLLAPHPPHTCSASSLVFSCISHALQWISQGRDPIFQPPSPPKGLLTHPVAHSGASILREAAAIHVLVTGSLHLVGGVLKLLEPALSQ
Briefly: Ratio of Vmax to Km of human recombinant cytosolic FPGS.

The target of data set [3] is T2, Thymidylate synthase (Lactobacillus casei, UniProt P00469).
T2 sequence (P00469 whole entry): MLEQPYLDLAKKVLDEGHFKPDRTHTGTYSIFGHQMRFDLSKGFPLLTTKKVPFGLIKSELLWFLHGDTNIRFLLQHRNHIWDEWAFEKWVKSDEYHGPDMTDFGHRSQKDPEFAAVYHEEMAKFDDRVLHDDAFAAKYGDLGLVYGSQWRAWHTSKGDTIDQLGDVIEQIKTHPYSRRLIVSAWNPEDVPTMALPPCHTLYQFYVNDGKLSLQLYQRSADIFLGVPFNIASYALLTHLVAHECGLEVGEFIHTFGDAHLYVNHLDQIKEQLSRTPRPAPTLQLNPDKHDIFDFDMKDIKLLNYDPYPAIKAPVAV
Nature of the data set: Inhibition of Lactobacillus casei thymidylate synthase. Also on record: species or system Lacticaseibacillus casei.

The target of data set [4] is Thymidylate synthase (Homo sapiens, UniProt P04818). Nature of the data set: Inhibition of human recombinant thymidylate synthase.
Data set [5] concerns CCRF-CEM. Nature of the data set: Cell growth in human CCRF-CEM cells in presence of 5 uM thymidine and 10 uM deoxycytidine relative to control. In kind it is functional.
In data set [6] the test system is CCRF-CEM. Nature of the data set: Cell growth in human CCRF-CEM cells in presence of 10 uM hypoxanthine and 10 uM deoxycytidine relative to control. In kind it is functional.
The subject of data set [7] is CCRF-CEM. Nature of the data set: Cell growth in human CCRF-CEM cells at 30 nM in presence of 5 uM thymidine and 10 uM deoxycytidine relative to control. In kind it is functional.
Data set [8] relates to CCRF-CEM. Nature of the data set: Cell growth in human CCRF-CEM cells at 30 nM in presence of thymidine, hypoxanthine and 10 uM deoxycytidine. In kind it is functional.
For data set [9], the system named is CCRF-CEM. Nature of the data set: Cell growth in human CCRF-CEM cells in presence of thymidine and hypoxanthine and 10 uM deoxycytidine relative to control. In kind it is functional.
Data set [10] relates to CCRF-CEM. Nature of the data set: Cell growth in human CCRF-CEM cells at 30 nM in presence of 10 uM hypoxanthine and 10 uM deoxycytidine. In kind it is functional.
A short description of data set [11]: Cytotoxicity against human HOP92 cells. In kind it is cell-based. The following applies: HOP-92 cells.
Data set [12] in a line: Cytotoxicity against human 786-0 cells. In kind it is cell-based.
Data set [13] concerns CCRF-CEM. Briefly: Growth inhibition of human CCRF-CEM cells at 1500 nM. In kind it is functional.
Data set [14] deals with Thymidylate synthase (Escherichia coli, UniProt C3SWJ7). Nature of the data set: Inhibition of Escherichia coli thymidylate synthase.
Data set [15] in a line: Cytotoxicity against human MCF7 cells. The data set is classed as cell-based.
The nature of data set [16]: Cytotoxicity against MDAN cells. The data set is classed as cell-based, MDA-N. The following applies: human.
Data set [17] can be described thus: Cytotoxicity against human SR cells. The data set is classed as cell-based.
Data set [18] is described as follows: Cytotoxicity against human A549 cells. The data set is classed as cell-based.
Data set [19] has as its target T3, Dihydrofolate reductase (Escherichia coli, UniProt P0ABQ4).
T3 sequence (P0ABQ4 whole entry): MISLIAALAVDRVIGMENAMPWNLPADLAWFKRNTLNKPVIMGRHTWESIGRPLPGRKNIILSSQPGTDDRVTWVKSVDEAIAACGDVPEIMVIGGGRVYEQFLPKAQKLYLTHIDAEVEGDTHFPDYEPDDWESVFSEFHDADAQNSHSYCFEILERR

Data set [20] is described as follows: Cytotoxicity against human SW620 cells. The following applies: SW-620 cells. In kind it is cell-based.
A short description of data set [21]: Cytotoxicity against human CCRF-CEM cells. In kind it is cell-based.
The nature of data set [22]: Cytotoxicity against human MDA-MB-435 cells. In kind it is cell-based.
Data set [23] can be described thus: Cytotoxicity against human HL60 cells. The data set is classed as cell-based. Particulars: HL-60 cells.
The target in data set [24] is Dihydrofolate reductase (Lactobacillus casei, UniProt P00381).
A short description of data set [25]: Cytotoxicity against human SK-MEL-28 cells. The data set is classed as cell-based.
In data set [26] the test system is CCRF-CEM. Briefly: Cell growth in human CCRF-CEM cells relative to control. In kind it is functional.
Data set [27] in a line: Cytotoxicity against human PC3 cells. In kind it is cell-based. Particulars: PC-3 cells.
Data set [28] can be described thus: Cytotoxicity against human K562 cells. The data set is classed as cell-based.
Data set [29] can be described thus: Cytotoxicity against human NCI-H460 cells. In kind it is cell-based.
A short description of data set [30]: Cytotoxicity against human HCT116 cells. The data set is classed as cell-based. Particulars: HCT-116 cells.
The subject of a further data set is SF-268. Briefly: Cytotoxicity against SF268 cells. The data set is classed as functional. The following applies: Homo sapiens.
Data set [31] has as its target T4, Dihydrofolate reductase (Homo sapiens, UniProt P00374).
T4 sequence (P00374 whole entry): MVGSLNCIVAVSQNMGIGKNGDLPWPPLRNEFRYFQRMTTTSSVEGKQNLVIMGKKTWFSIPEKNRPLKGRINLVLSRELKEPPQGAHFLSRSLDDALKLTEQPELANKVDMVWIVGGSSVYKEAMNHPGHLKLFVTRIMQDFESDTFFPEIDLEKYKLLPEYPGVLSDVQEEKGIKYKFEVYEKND

Substrate in data set [32]: Nc1nc(N)c2c(CCc3ccc(C(=O)N[C@@H](CCC(=O)O)C(=O)O)cc3)coc2n1
Nature of the data set: (§1) Activity of human recombinant cytosolic FPGS relative to aminopterin.

Substrate in data set [33]: Nc1nc(N)c2c(CCCc3ccc(C(=O)N[C@@H](CCC(=O)O)C(=O)O)cc3)coc2n1
Described as §1.

Substrate in data set [34]: Nc1nc(N)c2c(CCCc3ccc(C(=O)N[C@@H](CCC(=O)O)C(=O)O)cc3)coc2n1
Briefly: Activity of human recombinant cytosolic FPGS.

Thymidylate synthase (Homo sapiens, UniProt P04818), sequence (P04818 whole entry): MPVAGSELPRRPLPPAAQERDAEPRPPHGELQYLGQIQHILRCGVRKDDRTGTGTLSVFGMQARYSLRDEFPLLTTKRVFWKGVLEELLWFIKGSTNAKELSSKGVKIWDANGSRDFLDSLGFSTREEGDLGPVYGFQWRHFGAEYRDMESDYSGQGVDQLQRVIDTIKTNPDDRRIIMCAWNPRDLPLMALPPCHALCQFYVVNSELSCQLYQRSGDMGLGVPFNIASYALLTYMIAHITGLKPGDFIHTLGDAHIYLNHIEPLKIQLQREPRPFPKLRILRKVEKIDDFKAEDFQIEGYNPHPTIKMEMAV
Dihydrofolate reductase (Lactobacillus casei, UniProt P00381), sequence (P00381 whole entry): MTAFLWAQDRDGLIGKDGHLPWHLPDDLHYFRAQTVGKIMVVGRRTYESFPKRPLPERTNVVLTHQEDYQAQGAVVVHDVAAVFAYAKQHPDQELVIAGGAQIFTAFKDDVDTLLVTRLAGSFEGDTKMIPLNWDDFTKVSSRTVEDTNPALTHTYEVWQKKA
Thymidylate synthase (Escherichia coli, UniProt C3SWJ7), sequence (C3SWJ7 whole entry): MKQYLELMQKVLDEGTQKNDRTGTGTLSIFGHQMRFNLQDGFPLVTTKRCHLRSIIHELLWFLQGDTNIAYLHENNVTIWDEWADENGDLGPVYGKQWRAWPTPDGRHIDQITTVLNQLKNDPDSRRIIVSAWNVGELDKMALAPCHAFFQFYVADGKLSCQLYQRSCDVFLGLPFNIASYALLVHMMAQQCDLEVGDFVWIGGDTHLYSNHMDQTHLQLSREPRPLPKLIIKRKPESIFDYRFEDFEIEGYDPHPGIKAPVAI

On to `Nc1ccn([C@H]2C[C@H](O)[C@@H](CO)O2)c(=O)n1` [DOXECITINE], for which the Activity in the data set with CCRF-CEM [1] came out at 97%.
`Nc1nc(N)c2nc(CNc3ccc(C(=O)N[C@@H](CCC(=O)O)C(=O)O)cc3)cnc2n1`: in data set [2], the Ratio was determined as 0.22.
For `Nc1nc2[nH]cc(CCc3ccc(C(=O)N[C@@H](CCC(=O)O)C(=O)O)cc3)c2c(=O)[nH]1` [PEMETREXED], the IC50 came to 38000 nM at Thymidylate synthase [3] and 19000 nM on Thymidylate synthase [4].
As to `CN(Cc1cnc2nc(N)nc(N)c2n1)c1ccc(C(=O)N[C@@H](CCC(=O)O)C(=O)O)cc1` [METHOTREXATE], the Activity is recorded as 12.5% with CCRF-CEM [5]; 13.5% in the data set with CCRF-CEM [6]; 16% in the data set on CCRF-CEM [7]; 74.5% in the data set on CCRF-CEM [8]; 73.5% in the data set on CCRF-CEM [9]; 15.5% with CCRF-CEM [10].
Consider `Nc1nc(N)c2c(CCc3ccc(C(=O)N[C@@H](CCC(=O)O)C(=O)O)cc3)coc2n1`, for which, in data set [2], the Ratio worked out at 0.07.
For `Nc1nc(N)c2c(CCCc3ccc(C(=O)N[C@@H](CCC(=O)O)C(=O)O)cc3)coc2n1`, the GI50 in data set [11] turned out to be 95900 nM; in data set [12] it was 123 nM; in data set [15] it was 174 nM; in data set [16] it was 22.3 nM; in [17], 10 nM; in data set [18], 16.6 nM. Also, the GI50 worked out at 10 nM in data set [20]; 42.9 nM in data set [21]; 21.4 nM in [22]; 10 nM in data set [23]; 100000 nM in [25]; 12.5 nM in data set [27]. Also, the GI50 in [28] was found to be 10 nM; in data set [29], 10 nM; in data set [30], 10 nM; with SF-268, 648 nM. In addition, the IC50 is over 100000 nM against Thymidylate synthase [3]; over 180000 nM on Thymidylate synthase [14]; over 18000 nM on Thymidylate synthase [4]; 7000 nM against Dihydrofolate reductase [19]; 11000 nM against Dihydrofolate reductase [24]; 9000 nM against Dihydrofolate reductase [31]. Further, the Activity in the data set on CCRF-CEM [5] amounted to 25.5%; with CCRF-CEM [6], 20%; in the data set with CCRF-CEM [26], 21%; in the data set with CCRF-CEM [9], 73.5%. The molecule further returned an inhibition at 1.5 µM in the data set on CCRF-CEM [13] of 80%. The Ratio in data set [2] amounted to 1.4.

B1: Folylpolyglutamate synthase, mitochondrial (Homo sapiens), Q05932 (protein)
chain: T1 sequence (whole entry)
B1: the Vmax was 0.65 in data set [32] and 0.42 in [33]. The Km in data set [34] came to 0.3 µM.
